For test [1], the system named is EBV-positive B lymphoma cell line P3HR1. In words: Drug sensitivity assay: HDAC inhibitor plus ganciclovir, viable cell count by trypan blue. Format: cell-based, human. To be noted: both combined with ganciclovir; living cells counted on day 6. Here is the method: To determine tumor cytotoxic activity of the combination of HDACi and GCV, EBV+ lymphoma cells were exposed to a range of concentrations of sodium butyrate or chidamide […] for 3 days and then to GCV alone for another 3 days (FIG. 1C). Efficacy of either sodium butyrate or chidamide in the combination treatment approach was then determined by enumerating living cells. A general experimental protocol is described below.
(§1) The EBV-positive B lymphoma cell line P3HR1 was used in the study. The P3HR1 cell line was originally derived from Burkitt's lymphoma patient. EBV maintains a latent state of replication in this cell line. These cells were maintained in RPMI 1640 with 10% fetal bovine serum containing 100 U penicillin per ml and 100 μg streptomycin per ml.
To test the sensitivity of EBV-positive lymphoma cells towards chidamide, P3HR1 cells were treated with chidamide in the presence of one anti-viral drug. At the end of the assay, the efficacy of chidamide was assessed by measuring the inhibition of cell growth compared to untreated cells.
Healthy, actively-growing P3HR1 cells were harvested and resuspended in fresh growth media. Cells were seeded in wells. […] On day 6, cell morphology was observed under a microscope and viable cell counts in each individual well was determined by the trypan blue dye exclusion method using an automated cell counter (Countess, Invitrogen).

The test system of test [2] is viral TK (EBV thymidine kinase) transcript in P3HR1 cells. As to the kind of experiment: Thymidine kinase (TK) mRNA expression assay, quantitative real-time RT-PCR. The conditions noted are these: 24 hrs exposure, mRNA by RT-PCR. It counts as cell-based, human. Here is the method: (§2) To measure whether Chidamide could induce EBV associated transcripts, the induction of mRNA for the protein kinases TK (FIG. 1A) and BGLF4 (FIG. 1B) in EBV-positive lymphoma cell lines was measured after exposure to different concentrations of the short-chain fatty acid, sodium butyrate (NaB), or the benzamide, chidamide (chid), for 24 hrs. Transcripts were quantitated by quantitative real-time RT-PCR.
as §1
(§3) P3HR1 cells were seeded in 60 mm plates containing 3×10^6 cells in 3 ml of fresh growth media. Appropriate concentrations of HDAC inhibitors were added to the plate and cells were incubated in the presence of HDAC inhibitors for 6 h, 24 h, 48 h, or as needed. Cells were harvested by centrifugation and washed once in cold PBS. Total cellular RNA was then extracted. To measure the relative level of TK mRNA in various total RNA preparations, reverse transcription and quantitative PCR using real time PCR analysis were used. […] The relative level of TK expression in a sample was calculated following normalization of β-actin expression level.

In test [3] the test system is BGLF4 (EBV-PK) transcript in P3HR1 cells. As to the kind of experiment: Protein kinase (BGLF4) mRNA expression assay, quantitative real-time RT-PCR. Format: cell-based, human. The conditions noted are these: 24 hrs exposure, mRNA by RT-PCR. Here is the method:
as §2, §1, §3
Background: Quantitative PCR measures a nucleic acid by following its amplification.

The test system of the next test is EBV. As to the kind of experiment: EBV viral load in patient with post-transplant EBV positive lymphoma. It counts as in vivo, human. To be noted: one patient; arginine butyrate and daily ganciclovir; after 3 weeks of treatment; before treatment (Week 1) 27,782. The protocol: (§4) Levels were determined before treatment (week1) and after 3 weeks of treatment (week 3).

The next test deals with HHV-6. As to the kind of experiment: HHV-6 viral load in patient with post-transplant EBV positive lymphoma. Format: in vivo, human. To be noted: one patient; arginine butyrate and daily ganciclovir; after 3 weeks of treatment; before treatment (Week 1) 658,882. The protocol: as §4
The next test has as its system CMV. As to the kind of experiment: CMV viral load in patient with post-transplant EBV positive lymphoma. To be noted: one patient; arginine butyrate and daily ganciclovir; after 3 weeks of treatment; before treatment (Week 1) 12,300. Format: in vivo, human. Here is the method: as §4
In test [4] the test system is relapsed or refractory EBV-positive lymphoid tumors. The conditions noted are these: arginine butyrate and GCV; of 15 patients; cited from earlier work.

As for `Nc1cc(F)ccc1NC(=O)c1ccc(CNC(=O)/C=C/c2cccnc2)cc1` [chidamide], the “concentration of chidamide as good in killing as 1.0 mM sodium butyrate” value in test [1] turned out to be 104. Besides, in test [2], the “concentration at which induction of viral TK expression begins” value came out at 500 nM. For the same compound, the “concentration at which induction of BGLF4 expression begins” value in test [3] is reported as 500 nM.
For the compound arginine butyrate, the “EBV viral load, Week 3” value with EBV is 1,486 Copies per mL. Further, the “HHV-6 viral load, Week 3” value in the test with HHV-6 is on record as 805 Copies per mL. Besides, the “CMV viral load, Week 3” value in the test on CMV is reported as 1,600 Copies per mL. In addition, in test [4], the “patients who achieved complete tumor remissions” value is recorded as 4 patients and the “patients who achieved partial tumor remissions” value is 6 patients.

Values taken from patent US20210046061A1, “METHODS AND COMPOSITIONS FOR TREATING HERPESVIRUS INDUCED CONDITIONS” (TRUSTEES OF BOSTON UNIVERSITY, priority 2015, published 2021).
